Data taken from PMC10974084, “Combination of Betulinic Acid Fragments and Carbonic Anhydrase Inhibitors—A New Drug Targeting Approach” (Pharmaceutics, 2024).
Read-outs that look alike come from different tables or passages of the source.

Key:
[1] = tested on: A375 melanoma cells; test: SRB cytotoxicity assay, A375; type: cell-based; details: Homo sapiens, read-out: IC50 A375
Experimental: (§1) All of the compounds were dissolved in dimethyl sulfoxide (DMSO) to achieve a 20 mM stock solution. Cells were seeded in cell culture flasks 24 h before treatment. The treatment was performed for 24 h.
(§2) The cytotoxicity of the drugs was determined in 2D tumor models using sulforhodamine B (SRB) assays. Treatment started 24 h after seeding the tumor cells in 96-well plates as previously described.

[2] = tested on: A2780 ovarian cancer cells; test: SRB cytotoxicity assay, A2780; type: cell-based; details: Homo sapiens, read-out: IC50 A2780
Experimental: as §1, §2

[3] = tested on: MCF-7 cells; test: Cell cycle analysis, MCF-7; type: cell-based, human; details: double the IC50 concentration
Experimental: (§3) Cell cycle analyses were performed as previously described.
(§4) Changes in the genetic material and the resulting mutations, which can affect the formation of tumors, usually occur during the proliferation process in the cell. A human cell passes through all four phases of this cell cycle within 20 h, with the set of its chromosomes varying between single and double. During apoptosis, fragmentation of DNA occurs along with an associated decrease in chromosome content. Fixation of cells with ethanol leads to permeabilization of the cell membrane and thus to loss of smaller DNA fragments, so that apoptotic cells contain less than the single set of chromosomes detected by a SubG1 peak. Given the different amounts of DNA in the cells and the proportional binding of propidium iodide to the DNA, the different fluorescence intensities can be used to infer the distribution of cells in the respective phases of the cell cycle.
The MCF-7 breast cancer cell line was used in the experiments. An untreated sample was also included in the cell cycle analysis as a control. The results are depicted in Figure 4.

[4] = tested on: tumor cell lines (2D and 3D tumor models); test: Cytotoxicity summarised across tumor models; type: cell-based; details: Homo sapiens
Experimental: as §2
(§5) To determine cytotoxicity in the 3D tumor models, spheroid cytotoxicity assays were performed as previously described. The luciferase-expressing, breast cancer cell lines MDA-MB-231 and Hs578T and derived spheroids were cultivated in RPMI medium (Sigma-Aldrich, Taufkirchen, Germany) containing 10% fetal bovine serum (BioWest, Nuaillé, France) and 10% penicillin/streptomycin (Sigma-Aldrich) at 37 °C/5% CO2 in a humid atmosphere. For generation of single tumor spheroids, tumor cells resuspended in culture medium were seeded into 96-well plates, which were coated before with 0.7% agarose (SeaKem® GTG™ Agarose, Lonza, Basel, Switzerland). After the formation of spheroids (48 h), they were treated with serial dilutions of compounds. Measurements of luciferase activity were performed on day 7, after supplementation with D-luciferin (Perkin Elmer, Rodgau, Germany), on a Tecan Spark microplate reader (Tecan, Männedorf, Switzerland). Generation of dose-response curves and calculation of IC50 values including standard deviations were accomplished using GraphPad Prism8.

[5] = tested on: MCF-7 breast cancer cells; test: SRB cytotoxicity assay, MCF-7; type: cell-based; details: Homo sapiens, read-out: IC50 MCF-7
Experimental: as §1, §2

[6] = tested on: A375 cells; test: Cell cycle analysis, A375; type: cell-based, human; details: double the IC50 concentration
Experimental: as §3, §4
In addition, after 48 h of treatment, there was a decrease in the S and M phases for all treatments, which is similar to that noted after 24 h. […] As in the 24 and 48 h tests, there was a decrease in M- and S-phase cells and an increase in G1/G0 phase cells after 72 h compared with the untreated control. Several independent experiments by different groups show similar results with MCF-7 [42, 43, 44]. Due to a lack of DNA fragmentation in MCF-7 cells, the human melanoma cell line A375 was used as a second cell line for comparison (Figure 4d). […] The effect of compound 3 is even more pronounced with an incubation time of 48 or 72 h. An increase in the SubG1 peak was observed from 0.7% in the control to up to 60% after 72 h of treatment.

[7] = tested on: MCF-7 cells; test: Annexin V / propidium iodide assay, MCF-7; type: cell-based, human; details: double the IC50 concentration
Experimental: The Annexin V assays were performed as previously described.
Compounds 3, 5, and 9 were used to study cell death mechanisms and cell cycle analysis. A feature that can be used as it is only characteristic of apoptotic but not necrotic cells is Annexin V staining. During apoptosis, in addition to cell shrinkage, chromatin condensation, and the formation of apoptotic bodies, phosphatidylserine, which is originally inside the membrane, is translocated to the outside. There is a rapid change in phospholipid symmetry in the cell membrane, a process occurring so rapidly that the barrier function of the cell membrane is initially still present. The cellular protein Annexin V can bind to the displaced phosphatidylserine in the presence of calcium. To test for the presence of the cell membrane barrier, the non-membrane-permeable dye propidium iodide was added, which intercalates into the DNA. The flow cytometric data were divided into four areas (live cells, early and late apoptotic cells, and necrotic cells). Untreated cells were used as controls. The results are depicted in Figure 3. […] Even after 48 h, no significant difference between compound 3 and 5 was detected (55–60% live cells, 8% early apoptotic cells, 28–36% late apoptotic cells, 0.5–3% necrotic cells). […] Since both compounds are sulfonamides of betulin, the similar results are not surprising.

[8] = biological target: recombinant human carbonic anhydrase IX (Homo sapiens, UniProt Q16790); test: hCA IX esterase assay with p-nitrophenyl acetate; details: for Ki relative to the unconjugated inhibitors: higher Ki than unconjugated inhibitors
Experimental: In this measurement, the enzymatically catalyzed hydrolysis of p-nitrophenyl acetate to p-nitrophenol was investigated. […] This was followed by measurement of the v-S-characteristics with inhibitor. […] For each run, 2 experimental series (biological replicate) were prepared simultaneously and measured for 10 min at a measurement interval of 8 s, also as a two-fold determination (technical replicate). […] The resulting reaction velocities, calculated from a calibration curve with p-nitrophenole under the same conditions, were plotted against the substrate concentration. The kinetic evaluation for competitive inhibition was then performed with the program GraphPad Prism.

[9] = tested on: MDA-MB-231 spheroids; test: Spheroid cytotoxicity assay (luciferase), MDA-MB-231; type: cell-based, human; details: Homo sapiens, MDA-MB-231, 168 h, read-out: IC50 MDA-MB-231 spheroids
Experimental: as §5, with “The luciferase-expressing, breast cancer cell lines MDA-MB-231 and Hs578T and derived spheroids were cultivated in RPMI medium (Sigma-Aldrich, Taufkirchen, Germany) containing 10% fetal bovine serum (BioWest, Nuaillé, France) and 10% penicillin/streptomycin (Sigma-Aldrich) at 37 °C/5% CO2 in a humid atmosphere.” left out
(§6) Since the tumor cells stably express luciferase, analysis of spheroid growth and response to therapy is accomplished by measurement of bioluminescent signal intensity.

[10] = tested on: Hs578T spheroids; test: Spheroid cytotoxicity assay (luciferase), Hs578T; type: cell-based, human; details: for IC50: Homo sapiens, Hs-578T, 168 h, read-out: IC50 Hs578T spheroids
Experimental: as §5, with “The luciferase-expressing, breast cancer cell lines MDA-MB-231 and Hs578T and derived spheroids were cultivated in RPMI medium (Sigma-Aldrich, Taufkirchen, Germany) containing 10% fetal bovine serum (BioWest, Nuaillé, France) and 10% penicillin/streptomycin (Sigma-Aldrich) at 37 °C/5% CO2 in a humid atmosphere.” left out
as §6

[11] = A-375, SRB assay, 96 h incubation, mean ± SD
[12] = A2780, SRB assay, 96 h incubation, mean ± SD
[13] = SRB assays, A375, MCF-7, A2780, read-out: IC50 values (range over cell lines of Table 1)
[14] = read-out: cytotoxicity range in 2D and 3D tumor models
[15] = MCF7, SRB assay, 96 h incubation, mean ± SD
[16] = 7 days of treatment, 3 independent experiments

Row | Compound | IC50 [1, 11] [µM] | IC50 [2, 12] [µM] | cells in SubG1 phase ([3]; MCF-7, 72 h) [%] | IC50 [4, 13] [µM] | IC50 [4, 14] [µM] | IC50 [5, 15] [µM] | late apoptotic cells ([7]; MCF-7, 24 h) [%] | early apoptotic cells ([7]; MCF-7, 48 h) [%] | Ki [8] [µM] | Ki relative to the unconjugated inhibitors [8] | also measured
1 | C=C(C)C1CCC2(C(=O)NCCS(N)(=O)=O)CCC3(C)C(CCC4C5(C)CCC(OC(C)=O)C(C)(C)C5CCC43C)C12 (stereo not drawn) [Compound 3, (3β)-28-{[2-(Aminosulfonyl)-ethyl]-amino}28-oxolup-20(29)-en-3-yl Acetate] | 6.4 ± 0.7 | 10.4 ± 0.8 | 8.1 | 6.4 to 11.4 | 6.4 to 30.1 | 7.5 ± 0.7 | 16 | 8 | 1.04 ± 0.39 | approximately 10 fold | cells in G1/G0 phase ([6]; A375, 24 h): 46.9%; cells in M phase ([6]; A375, 24 h): 15.8%; cells in S phase ([6]; A375, 24 h): 21.2%; cells in SubG1 phase ([6]; A375, 24 h): 11.9%; SubG1 peak ([6]; A375, 72 h, control 0.7%): up to 60%; early apoptotic cells ([7]; MCF-7, 72 h): 9%; late apoptotic cells ([7]; MCF-7, 72 h): 53%; live cells ([7]; MCF-7, 72 h): 34%; necrotic cells ([7]; MCF-7, 72 h): 4.5%
2 | C=C(C)C1CCC2(COC(=O)CCC(=O)O)CCC3(C)C(CCC4C5(C)CCC(OC(C)=O)C(C)(C)C5CCC43C)C12 (stereo not drawn) [Compound 4, 4-{[(3beta)-3-(Acetyloxy)-lup-20(29)-en-28-yl]-oxy}-4-oxobutanoic Acid] | 12.1 ± 1.5 | 12.3 ± 3.9 |  |  |  | 9.8 ± 0.6 |  |  |  |  | melting point: 122 to 125 °C
3 | C=C(C)C1CCC2(COC(=O)CCC(=O)NCCS(N)(=O)=O)CCC3(C)C(CCC4C5(C)CCC(OC(C)=O)C(C)(C)C5CCC43C)C12 (stereo not drawn) [Compound 5, (3β)-3-(Acetyloxy)-lup-20(29)-en-28-yl 4-{[2-(aminosulfonyl)-ethyl]amino}-4-oxobutanoate] | 9.4 ± 0.5 | 11.4 ± 1.4 | 12.1 | 6.4 to 11.4 | 6.4 to 30.1 | 8.6 ± 0.7 | 16 | 8 | 1.1 ± 0.31 | approximately 10 fold | IC50 [9, 16]: 10.3 ± 2.7 µM; cells in G1/G0 phase ([3]; MCF-7, 48 h): 83.9%; cells in M phase ([3]; MCF-7, 48 h): 5.8%; cells in S phase ([3]; MCF-7, 48 h): 1.8%; cells in SubG1 phase ([3]; MCF-7, 48 h): 8.1%; IC50 [10, 16]: 30.1 ± 0.7 µM; resistance of Hs578T spheroids versus MDA-MB-231 spheroids ([10]; difference of spheroid IC50 values): only about three-fold differences; effect on cell viability (Annexin V) ([7]; MCF-7, 72 h): comparably strong effect
4 | Nc1nnc(S(N)(=O)=O)s1 [Compound 6, 5-Amino-1,3.4-thiadiazole-2-sulfonamide] | > 100 | > 100 |  |  |  | > 100 |  |  |  |  | 
5 | NS(=O)(=O)c1nnc(NC(=O)CCC(=O)O)s1 [Compound 7, 4 {[5-(Amino sulfonyl)-1,3,4-thiadiazol-2-yl]-amino}-4-oxobutanoic Acid] |  |  |  |  |  |  |  |  |  |  | IC50 ([1]; A-375, 96 h): > 100 µM; IC50 [9]: > 100 µM; IC50 ([2]; A2780, 96 h): > 100 µM; IC50 [10]: > 100 µM; IC50 ([5]; MCF7, 96 h): > 100 µM
